{
  "source": "patent US5468730A",
  "about": "“Methods for the treatment of non-IgE-mediated diseases” (Dura Pharmaceuticals, Inc., priority 1992, dated 1995)",
  "key": {"[1]": {"tested_on": "binding of IgE to lymphoblastoid tissue culture cells", "conditions": "two trials; reported in U.S. Pat. No. 4,161,522; cited from earlier work"}, "[2]": {"tested_on": "Tetanus toxoid-induced DTH reactions", "parameters": "species or system female Balb/C mice", "conditions": "mouse, in vivo"}, "[3]": {"tested_on": "sheep erythrocyte (SRBC)-induced DTH reactions", "assay": "Sheep erythrocyte (SRBC)-induced DTH footpad swelling in mice", "format": "in vivo, female Balb/C mice", "conditions": "indomethacin 1.0 mg/kg on day 4 (positive control); footpad volume about 24 h after challenge"}, "[4]": {"tested_on": "carrageenan-induced inflammation", "assay": "Carrageenan-induced footpad edema in mice", "format": "in vivo, female Balb/C mice", "procedure": "In order to examine the ability of pentigetide to inhibit carrageenan-induced inflammation, female Balb/C mice were injected with 0.025 ml of 1.0% carrageenan solution (type 1x carrageenan: Sigma No. C-1013, Lot No. 86F-0698) or saline in the right hind footpad 5 minutes after intravenous tail vein injection of 0.2 ml pentigetide (1.0 mg/kg) or saline solution."}, "[5]": {"tested_on": "chronic idiopathic urticaria (non-IgE-mediated)", "conditions": "human, in vivo"}, "[6]": {"tested_on": "immune complex-induced colitis", "assay": "Immune complex-mediated ulcerative colitis model (formalin + IgG immune complexes) in mice", "format": "in vivo, male BKA mice (outbred Swiss albino)", "procedure": "A mouse model of intestinal inflammation was employed wherein the efficacy of pentigetide in reducing inflammation induced by formalin and complement-fixing IgG immune complexes was measured. This model is particularly useful as a model of human ulcerative colitis and shares many clinical and histological functions of the human disease including sensitivity to glucocorticoids, sulfasalazine and 5-aminosalicylic acid (see L. P. Walsh, et al., British J. Pharm. 91:294 (1987); A. Blackham, et al., British J. Pharm. 89:694 (1986); L. D. Walsh and I. J. Zeitlin, British J. Pharm. 92:741 (1987)). The mouse model of intestinal inflammation used in these studies is induced by the exposure of the animals to chemicals which are known to trigger inflammatory processes in both animals and humans. […]\nColonic tissue water content was determined by tissue weight loss on drying of colonic tissues. […]\nThe response to immune complex alone was determined quantitatively by subtracting the mean value in group B from the mean value in group C. An estimate of the percentage reduction in this response produced by the drug was calculated as: [formula] […] Statistical significance was determined using the non-parametric Mann-Whitney U-test. […]"}},
  "note": "Values joined by “and” are separate entries in the source; they are usually repeats but may differ in a detail not shown here. Equal values may be shown once. No end group written: not given here.",
  "data": [
    {"compound": "Asn-Ser-Asn-Pro-Arg (NSNPR; printed: Asn-Ser-Asn-Pro-Arg) [peptide reported in U.S. Pat. No. 4,161,522]", "values": [
      {"measurement": "activity: ability to block binding of IgE to lymphoblastoid tissue culture cells", "setting": "[1]", "result": "lower activity"}
    ]},
    {"compound": "Asn-Ser-Asp-Pro-Arg (NSDPR; printed: Asn-Ser-Asp-Pro-Arg) [peptide reported in U.S. Pat. No. 4,161,522]", "values": [
      {"measurement": "activity: ability to block binding of IgE to lymphoblastoid tissue culture cells", "setting": "[1]", "result": "lower activity"}
    ]},
    {"compound": "COc1ccc2c(c1)c(CC(=O)O)c(C)n2C(=O)c1ccc(Cl)cc1", "note": "[Indomethacin, indomethacin]", "values": [
      {"measurement": "inhibition", "setting": "[2]", "result": 45, "unit": "%"},
      {"measurement": "inhibition", "setting": "[3]", "result": 43, "unit": "%"},
      {"measurement": "Percent Inhibition", "setting": "[4]; 1.0 hours after carrageenan injection, indomethacin 10 mg/kg s.c. 24 hours prior to carrageenan", "result": -35, "unit": "%"},
      {"measurement": "Percent Inhibition", "setting": "[4]; 2.0 hours after carrageenan injection, indomethacin 10 mg/kg s.c.", "result": -60, "unit": "%"},
      {"measurement": "Percent Inhibition", "setting": "[4]; 4.0 hours after carrageenan injection, indomethacin 10 mg/kg s.c.", "result": -39, "unit": "%"},
      {"measurement": "Percent Inhibition", "setting": "[4]; 6.0 hours after carrageenan injection, indomethacin 10 mg/kg s.c.", "result": -47, "unit": "%"}
    ]},
    {"compound": "DSDPR [pentigetide, Asp-Ser-Asp-Pro-Arg]", "values": [
      {"measurement": "side effects from the treatment", "setting": "[5]", "result": "did not experience any side effects"}
    ]},
    {"compound": "[-Cys-Ala-Asn-Ser-Asn-Pro-Arg]2", "values": [
      {"measurement": "activity: ability to block binding of IgE to lymphoblastoid tissue culture cells", "setting": "[1]", "result": "9% and 12%"}
    ]},
    {"compound": "C[C@]12C=CC(=O)C=C1CC[C@@H]1[C@@H]2[C@@H](O)C[C@@]2(C)[C@H]1CC[C@]2(O)C(=O)CO", "note": "[prednisolone]", "values": [
      {"measurement": "reduction of colonic edema", "setting": "[6]; prednisolone 5.0 mg/kg i.p. for three days prior to inflammation induction and daily thereafter, p<0.01", "result": 86.2, "unit": "%"},
      {"measurement": "reduction of colonic edema (printed in the colitic sign score paragraph)", "setting": "[6]; prednisolone 5.0 mg/kg i.p., p<0.001", "result": 93.8, "unit": "%"}
    ]}
  ]
}
